Results: patent publication US10407445B2, “Hepatitis C virus inhibitors” (ENANTA PHARMACEUTICALS, INC., priority 2013, dated 2019)

Key:
[1] = system: HCV GT 2a-J6 replicon; experiment: HCV replicon assay, GT2a chimeric replicon expressing NS5A from GT2a strain J6; assay type: cell-based; details: Hepatitis C virus, 72 h, read-out: EC50 2a J6
Procedure: The activity of compounds was determined against HCV replicons representing genotypes (GT) 1a, 1b, 2a, and 3a. To generate stable Huh-7.5-based cell lines, HCV replicons were engineered to express the Renilla luciferase reporter (hRluc) fused to the neomycin phosphotransferase (Neo) gene. GT2a and GT3a HCV replicons were based on the JFH-1 subgenomic replicon (Kato et al. 2003 Gastroenterology, 125:1808-1817), in which the NS5A gene was replaced with that of strains J6 and S52 (GT2a and G3a, respectively). The activity of compounds against GT1a replicons encoding NS5A mutations (M28T, Q30R, L31M, Y93C, and Y93H) was also determined in a transient replication assay. The parental GT1a and GT2a replicons (pH/SG-Neo(L+I) and pSG-Neo-JFH1, respectively) were licensed from Apath LLC (Saint Louis, Mo.). The parental GT 1b replicon (pFKi389lucubineo_3_3′_ET) was licensed from ReBLikon GmbH (Germany). HCV replicons were constructed by standard molecular biology techniques described below. All replicon constructs were verified by restriction enzyme digestion and DNA sequencing.
The plasmid pSG-hRlucNeo-JFH1 was generated from pSG-Neo-JFH1 (Kato et al. 2003, Gastroentrology 125:1808-1817). A fragment containing the JFH-1 5′ NTR—hRluc-Neo gene and two unique restriction sites (AgeI and PmeI) was synthesized (Integrated DNA Technologies, Coralville, Iowa). The resulting synthetic plasmid was digested with AgeI and PmeI and the excised fragment (5′NTR-hRluc-Neo) was ligated into pSG-Neo-JFH1 digested with the same enzymes to generate pSG-hRlucNeo-JFH1. To allow expression of heterologous NS5A sequences, an NS5A shuttle vector was generated from pSG-Neo-JFH1, in which the entire coding sequence of NS5A plus the first eight codons of NS5B were replaced with an AfeI restriction site. This was done by Infusion cloning (Clontech, Mountain View, Calif.) from two PCR products that were generated using pSG-Neo-JFH1 as a template and the following primer pairs:
Underlined sequences denote regions of overlap necessary for Infusion cloning. Purified PCR products were cloned directly into an NsiI/SnaBI digested pSG-Neo-JFH1 following the manufacturer's instructions to generate pSG-Neo-JFH1-5Ashuttle. The 2023 base pair AgeI/PmeI fragment from pSG-hRlucNeo-JFH1 was then ligated into pSG-Neo-JFH1-5Ashuttle to generate pSG-hRlucNeo-JFH1-5Ashuttle. To generate the 2a-2a-(J6) and 2a-3a-(S52) NS5A chimeric replicons, the full length NS5A sequences from GT2a strain J6 (accession AF177036) and GT3a strain S52 (accession GU814263), with the addition of the first eight codons of JFH-1 NS5B (5′-TCCATGTCATACTCCTGGACCGGG-3′), were synthesized by GeneArt (Life Technologies, Carlsbad Calif.). J6 and S52 NS5A sequences were then PCR amplified from the synthetic clones using the appropriate forward primer:
Underlined sequences denote regions of overlap with pSG-hRlucNeo-JFH1-5Ashuttle necessary for Infusion cloning. Purified PCR products were directly cloned into AfeI-digested shuttle vector by Infusion cloning following the manufacturer's instructions.
Stable HCV replicon cell lines were grown in complete media (Dulbecco's modified Eagle medium [DMEM], 2 mM L-glutamine, 0.1 mM essential amino acids, 1 mM sodium pyruvate, 10% heat inactivated fetal bovine serum) with the addition 500 μg/ml […] (G418). Huh7-lunet cells were maintained in the same medium without the addition of G418. Cells were routinely passaged at a dilution of 1:4 two times a week. The assay medium for both luciferase reporter HCV replicon and cytotoxicity assays used phenol red-free DMEM and lacked G418. For each stable replicon assay, a sixteen point half-log dilution series of compound was stamped (0.5 ul compound per well) into three replica 384-well plates, to which cells were added directly (4000 cells/well). […]

[2] = system: GT1a replicon encoding NS5A mutation Q30R; experiment: Transient replication assay, GT1a replicon with NS5A mutation Q30R; assay type: cell-based; details: Hepatitis C virus, read-out: EC50 1a Q30R

Compound: COC(=O)N[C@H](C(=O)N1[C@H](c2nc3ccc4cc(-c5ccc(-c6cnc([C@@H]7C[C@@]8(CCCOC8)CN7C(=O)[C@H](NC(=O)OC)C7C[C@@H](C)O[C@H](C)C7)[nH]6)cc5)ccc4c3[nH]2)C[C@@H]2CCCC[C@@H]21)C(C)C (stereo in doubt) [Compound 39]
- EC50 [1]: 41 nM
- EC50 [2]: 0.05 nM

Compound: COC(=O)N[C@H](C(=O)N1C[C@]2(CCCOC2)C[C@H]1c1ncc(-c2ccc3cc4cc(-c5cnc([C@@H]6C[C@@H]7CCCC[C@@H]7N6C(=O)[C@@H](NC(=O)OC)C(C)C)[nH]5)ccc4cc3c2)[nH]1)C(C)C [Compound 13]
- EC50 [1]: 17 nM
- EC50 [2]: 0.01 nM

Compound: COC(=O)N[C@H](C(=O)N1C[C@]2(CCCOC2)C[C@H]1c1ncc(-c2ccc3c(c2)COc2cc(-c4cnc([C@@H]5C[C@@H]6CCCC[C@@H]6N5C(=O)[C@@H](NC(=O)OC)C(C)C)[nH]4)ccc2-3)[nH]1)C(C)C [Compound 15]
- EC50 [1]: 1 nM
- EC50 [2]: 0.003 nM

Compound: COC(=O)N[C@H](C(=O)N1C[C@]2(CCCOC2)C[C@H]1c1ncc(-c2ccc3c(ccc4cc(-c5cnc([C@@H]6C[C@@H]7CCCC[C@@H]7N6C(=O)[C@@H](NC(=O)OC)C(C)C)[nH]5)ccc43)c2)[nH]1)C(C)C [Compound 17]
- EC50 [1]: 22 nM
- EC50 [2]: 0.01 nM

Compound: COC(=O)N[C@H](C(=O)N1C[C@]2(CCCOC2)C[C@H]1c1ncc(-c2ccc(-c3ccc4c(ccc5nc([C@@H]6C[C@@H]7C[C@@H]7N6C(=O)[C@@H](NC(=O)OC)C(C)C)[nH]c54)c3)cc2)[nH]1)C(C)C [Compound 20]
- EC50 [1]: 23 nM
- EC50 [2]: 0.2 nM

Compound: COC(=O)N[C@H](C(=O)N1CCC[C@H]1c1nc2c([nH]1)-c1ccc(-c3ccc4c(ccc5nc([C@@H]6C[C@@]7(CCCOC7)CN6C(=O)[C@@H](NC(=O)OC)C(C)C)[nH]c54)c3)cc1OC2)C(C)C [Compound 25]
- EC50 [1]: 0.8 nM
- EC50 [2]: 0.2 nM

Compound: COC(=O)N[C@H](C(=O)N1C[C@]2(CCOC2)C[C@H]1c1ncc(-c2ccc(-c3ccc4c(ccc5nc([C@@H]6CCCN6C(=O)[C@@H](NC(=O)OC)C(C)C)[nH]c54)c3)cc2)[nH]1)C(C)C [Compound 26]
- EC50 [1]: 22 nM
- EC50 [2]: 0.8 nM

Compound: COC(=O)N[C@H](C(=O)N1C[C@@]2(CCCOC2)C[C@H]1c1ncc(-c2ccc(-c3ccc4c(ccc5nc([C@@H]6CCCN6C(=O)[C@@H](NC(=O)OC)C(C)C)[nH]c54)c3)cc2)[nH]1)C(C)C [Compound 27]
- EC50 [1]: 50 nM
- EC50 [2]: 0.06 nM

Compound: COC(=O)N[C@H](C(=O)N1C[C@]2(CCCOC2)C[C@H]1c1ncc(-c2ccc(-c3ccc4c(c3)OCc3nc([C@@H]5CCCN5C(=O)[C@@H](NC(=O)OC)C(C)C)[nH]c3-4)cc2)[nH]1)C(C)C [Compound 30]
- EC50 [1]: 1 nM
- EC50 [2]: 0.1 nM

Compound: COC(=O)N[C@H](C(=O)N1CCC[C@H]1c1ncc(-c2ccc(-c3ccc4c(c3)OCc3nc([C@@H]5C[C@@]6(CCCOC6)CN5C(=O)[C@@H](NC(=O)OC)C(C)C)[nH]c3-4)cc2)[nH]1)C(C)C [Compound 33]
- EC50 [1]: 1 nM
- EC50 [2]: 0.2 nM

Compound: COC(=O)N[C@H](C(=O)N1C[C@]2(CCCOC2)C[C@H]1c1nc2ccc3cc(-c4ccc5c(ccc6nc([C@@H]7C[C@@H]8COC[C@@H]8N7C(=O)[C@@H](NC(=O)OC)C(C)C)[nH]c65)c4)ccc3c2[nH]1)C(C)C [Compound 36]
- EC50 [1]: 0.3 nM
- EC50 [2]: 0.04 nM

Compound: COC(=O)N[C@H](C(=O)N1C[C@]2(CCCOC2)C[C@H]1c1ncc(-c2ccc(-c3ccc4c(c3)CCCc3nc([C@@H]5C[C@@H]6CCCC[C@@H]6N5C(=O)[C@@H](NC(=O)OC)C(C)C)[nH]c3-4)cc2)[nH]1)C(C)C [Compound 40]
- EC50 [1]: 55 nM
- EC50 [2]: 0.05 nM

Compound: COC(=O)N[C@H](C(=O)N1C[C@]2(CCCOC2)C[C@H]1c1ncc(-c2ccc(-c3ccc4c(c3)OCc3nc([C@@H]5C[C@@H]6CCCC[C@@H]6N5C(=O)[C@@H](NC(=O)OC)C(C)C)[nH]c3-4)cc2)[nH]1)C(C)C [Compound 42]
- EC50 [1]: 2 nM
- EC50 [2]: 0.05 nM

Compound: COC(=O)N[C@H](C(=O)N1C[C@@]2(CCOC2)C[C@H]1c1ncc(-c2ccc(-c3ccc4c(ccc5nc([C@@H]6C[C@]7(CCOC7)CN6C(=O)[C@@H](NC(=O)OC)C(C)C)[nH]c54)c3)cc2)[nH]1)C(C)C [Compound 49]
- EC50 [1]: 23 nM
- EC50 [2]: 0.2 nM

Compound: COC(=O)N[C@H](C(=O)N1C[C@@]2(CCOC2)C[C@H]1c1ncc(-c2ccc(-c3ccc4c(ccc5nc([C@@H]6CCCN6C(=O)[C@@H](NC(=O)OC)C(C)C)[nH]c54)c3)cc2)[nH]1)C(C)C [Compound 50]
- EC50 [1]: 13 nM
- EC50 [2]: 0.4 nM

Compound: COC(=O)N[C@H](C(=O)N1C[C@]2(CCCCO2)C[C@H]1c1nc(-c2ccc(-c3ccc4c(ccc5nc([C@@H]6CCCN6C(=O)[C@@H](NC(=O)OC)C(C)C)[nH]c54)c3)cc2)c[nH]1)C(C)C [Example 2]
- EC50 [1]: 27 nM
- EC50 [2]: 0.03 nM

Compound: COC(=O)N[C@H](C(=O)N1C[C@@]2(CCCCO2)C[C@H]1c1nc(-c2ccc(-c3ccc4c(ccc5nc([C@@H]6CCCN6C(=O)[C@@H](NC(=O)OC)C(C)C)[nH]c54)c3)cc2)c[nH]1)C(C)C [Example 3]
- EC50 [1]: 267 nM
- EC50 [2]: 5 nM

Compound: COC(=O)N[C@H](C(=O)N1C[C@]2(CCCO2)C[C@H]1c1ncc(-c2ccc(-c3ccc4c(ccc5nc([C@@H]6CCCN6C(=O)[C@@H](NC(=O)OC)C(C)C)[nH]c54)c3)cc2)[nH]1)C(C)C [Example 81]
- EC50 [1]: 45 nM
- EC50 [2]: 0.05 nM

Compound: COC(=O)N[C@H](C(=O)N1C[C@@]2(CCCO2)C[C@H]1c1ncc(-c2ccc(-c3ccc4c(ccc5nc([C@@H]6CCCN6C(=O)[C@@H](NC(=O)OC)C(C)C)[nH]c54)c3)cc2)[nH]1)C(C)C [Example 82]
- EC50 [1]: 40 nM
- EC50 [2]: 3 nM

Compound: COC(=O)N[C@H](C(=O)N1CC2(CCOCC2)C[C@H]1c1ncc(-c2ccc(-c3ccc4c(ccc5nc([C@@H]6CCCN6C(=O)[C@@H](NC(=O)OC)C(C)C)[nH]c54)c3)cc2)[nH]1)C(C)C [Example 83]
- EC50 [1]: 32 nM
- EC50 [2]: 1 nM

Compound: COC(=O)N[C@H](C(=O)N1CCC[C@H]1c1nc2ccc3cc(-c4ccc5c(ccc6nc([C@@H]7CCCN7C(=O)[C@@H](NC(=O)OC)C(C)C)[nH]c65)c4)ccc3c2[nH]1)C(C)C [Example 101]
- EC50 [1]: 0.1 nM
- EC50 [2]: 0.2 nM

Compound: COC(=O)N[C@H](C(=O)N1CCC[C@H]1c1ncc(-c2ccc(-c3ccc4c(ccc5nc([C@@H]6CCCN6C(=O)[C@@H](NC(=O)OC)C(C)C)[nH]c54)c3)cc2)[nH]1)C(C)C [Example 102]
- EC50 [1]: 1 nM
- EC50 [2]: 1 nM

Compound: COC(=O)N[C@H](C(=O)N1CCC[C@H]1c1nc2ccc(C#Cc3ccc4c(ccc5nc([C@@H]6CCCN6C(=O)[C@@H](NC(=O)OC)C(C)C)[nH]c54)c3)cc2[nH]1)C(C)C [Example 103]
- EC50 [1]: 16 nM
- EC50 [2]: 3 nM
